How the values were obtained:
CNT1 = settings: for fold increase of content in urine of Slc28a1-/- mice: Slc28a1-/- vs Slc28a1+/+, urine collected over 12 h starvation, 8-week-old mice, n = 6
Experimental: Linearity was established for analytes over the concentration ranges observed and the lower limit of quantification of the LC–MS/MS assay was approximately 0.1 ng/ml for each analyte (Fig. S2).
Standard solutions of all nucleotide targets were serially diluted to generate calibration solutions at concentrations of 0.0, 0.0001, 0.001, 0.01, 0.1, 1.0, and 10 µg/ml. Urine samples were prepared by adding 20 µL of urine solution to 80 µL of 50:50 H2O:MeOH containing internal standard, vortexing and centrifuging at 20,000 × g; then, 50 µL aliquots were placed into glass vials, dried in a SpeedVac and reconstituted in 5% MeOH with 0.1% formic acid for injection.
Samples were quantified using a heated electrospray ionization source (HESI) on a Thermo Scientific TQS Quantiva triple quadrupole mass spectrometer, and separation was achieved using a Thermo Scientific Ultimate 3000 HPLC equipped with an Agilent 120 SB-C18 reversed-phase column (2 × 100 mm, 2.7 µm particle size) maintained at 40 °C. […] For all experiments, the capillary voltage was set to 4.5 kV with a capillary temperature of 350 °C, a vaporizer temperature of 100 °C, a sheath gas flow of 12, an auxiliary gas flow of 13, and a 1.6 sweep gas. For selected reaction monitoring (SRM) mode, Q1 and Q3 were set to 0.7 full width at half maximum (FWHM) resolution, a cycle time of 0.8 s, and a CID gas pressure of 1.5 mTorr.

[1] = Gemcitabine urine pharmacokinetics (renal excretion) in Slc28a1+/+ and Slc28a1-/- mice; settings: WT and KO mouse urine pooled 10 min to 2 h after dFdC 50 mg/kg i.v.
Experimental: THU was added to the mouse urine samples upon collection and frozen until analysis. […] Five microliters of the diluted samples were transferred to a 96-well autosampler plate then 10 µL of internal standard mixture was added and mixed. […] The plate was then transferred to the 4 °C autosampler for analysis.
The chromatographic separation was performed on a Thermo Accucore aQ 2.6 µm, 100 ×2.1 mm column at 30 °C using a gradient with a 10 µL injection volume. The mobiles phases were 1 mM ammonium acetate in deionized water pH 6.8 and acetonitrile. The total run time was 5.5 min. […] The LC–MS/MS analysis was conducted on a Thermo Vanquish UHPLC with a TSQ Quantiva mass spectrometer equipped with an electrospray ionization source.

[2] = Gemcitabine plasma pharmacokinetics in Slc28a1+/+ and Slc28a1-/- mice; settings: Slc28a1+/+ and Slc28a1-/- mice; single i.v. dFdC 50 mg/kg
Experimental: To collect blood, a 5 mm lancet was used to apply pressure to the submandibular vein and release blood flow. For retro-orbital collection, mice were anesthetized with 3% isoflurane in oxygen, and the blood was collected directly into heparinized capillary tubes by applying slight pressure to the medial canthus of the eye. Cardiac puncture was performed as the final collection method by first euthanizing the mice in a CO2 chamber and immediately performing posterior cardiac puncture by inserting a 27 G needle with a 1 ml syringe attachment into the heart. Once blood collection was completed, gentle pressure was applied to the blood collection area using gauze to stop the bleeding. Thirty microliters of blood was collected into heparinized capillary tubes at each time point, transferred into prelabeled 0.5 ml microcentrifuge tubes containing THU (10 µg/ml; final concentration), and immediately processed and snap-frozen following procedures outlined in the “Gemcitabine plasma pharmacokinetics” methods section.
Gemcitabine and dFdU plasma concentrations were measured using a modified version of our previously published UHPLC–MS/MS method for nucleosides[74] […] Noncompartmental pharmacokinetic parameters (Cmax, Tmax, AUC, CL, T1/2, etc.) were calculated using WinNonlin 6.2 software (Pharsight; Mountain View, CA). […] The Cmax and Tmax were obtained from the concentration-time curve. The AUC was calculated according to the linear trapezoidal rule up to the last time point with a measurable concentration of the analyte of interest. Significant differences between Slc28a1^+/+ and Slc28a1^−/− mouse pharmacokinetic parameters (p < 0.05) were evaluated with an unpaired two-sided Student’s t-test.
The resulting supernatant was evaporated to dryness in a SpeedVac, and the remaining residue was reconstituted in mobile phase A for subsequent analysis. […] Subsequent processing was identical to that for the plasma and urine samples.
Briefly, the analysis was performed on an Imtakt Schzero SM C18 column, 2.1 × 100 mm, 3.0 µm particle size. The eluents used consisted of mobile phase A consisting of 50 mM ammonium formate:50 mM ammonium hydroxide (9:1, v/v) (pH = 8.6) and mobile phase B consisting of 50 mM ammonium formate:50 mM ammonium hydroxide (9:1, v/v):ACN (80:20, v/v) (pH = 8.6). […] The injection volume was 10 μL, and the autosampler temperature was set at 4 °C throughout the analysis.
The Waters Triple Quadrupole Mass Spectrometer with an ESI source was operated in negative and positive ion mode at a spray voltage of 2.5 kV, capillary temperature of 150 °C, and vaporizer temperature of 250 °C. Compound optimization was performed manually using the MassLynx 4.1 Software AutoTune Wizard (Waters, Milford, MA) by infusion into the mass spectrometer using a T-connector. […] Analyze concentrations were determined and analyzed using MassLynx Mass Spectrometry Software (Waters; Milford, MA).

fold increase of content in urine of Slc28a1-/- mice (CNT1) [fold] | Structure (SMILES) | other results
4.6 | O=c1cc[nH]c(=O)[nH]1 [Uracil] | 
5.9 | O=c1ccn([C@@H]2O[C@H](CO)[C@@H](O)[C@H]2O)c(=O)[nH]1 [uridine] | 

Second part, the compound before the results:

Structure (SMILES) | fold increase of content in urine of Slc28a1-/- mice (CNT1) [fold] | other results
Nc1ccn([C@@H]2O[C@H](CO)[C@@H](O)[C@H]2O)c(=O)n1 [cytidine] | 52.9 | 
Nc1ccn([C@@H]2O[C@H](COP(=O)(O)OP(=O)(O)OP(=O)(O)O)[C@@H](O)C2(F)F)c(=O)n1 [dFdC-TP, dFdC triphosphate] |  | level in urine after dFdC dosing [1]: below the limits of quantification; plasma level after dFdC dosing [2]: did not detect appreciable quantities
Nc1nc2c(ncn2[C@H]2C[C@H](O)[C@@H](CO)O2)c(=O)[nH]1 [deoxyguanosine] |  | Concentration in urine (CNT1; Slc28a1+/+ and Slc28a1-/- mice, 12 h starvation): undetectable
O=c1ccn([C@H]2C[C@H](O)[C@@H](CO)O2)c(=O)[nH]1 [deoxyuridine] | 2.4 | 

Source: article PMC10235067, “Increased renal elimination of endogenous and synthetic pyrimidine nucleosides in concentrative nucleoside transporter 1 deficient mice” (Nature Communications, 2023)
